Data set [1] deals with human malignant U373 glioma cells. Description: Cell viability / cell death (MTT test, propidium iodide, annexin-V-Alexa 568 binding, FACS scatter morphology). The conditions noted are these: for binding of annexin-V-Alexa 568 reagent (phosphatidyl serine) / cytotoxic effects: 260 μM in 0.1% DMSO/PBS; for binding of annexin-V-Alexa 568 reagent (phosphatidyl serine) / cytotoxic effects / cytotoxic effects / signs of cell death: substance alone; for cytotoxic effects / signs of cell death: 260 μM in PBS. On the procedure: Human malignant U373-glioma cells were grown to 70% confluency in RPMI-1640 Ready Mix Medium containing L-Glutamine and 10% FBS-Gold (PAA laboratories, Pasching, Austria) at 37° C., 5% CO2 (vol/vol), in 4-well-plates (NUNC, Wiesbaden, Germany) with about 300,000 cells pro well. […] After this, the cells were washed three times with buffer and then incubated with Ready Mix Medium again. Cell viability was then assessed by the addition of methyl-thiazoyl-tetrazolium (MTT) salt (Sigma-Aldrich, Germany) at a concentration of 15 mg/ml. After 20 minutes, the production of formazan was investigated. When blue formazan granules were detected, propidium iodine (PI) was added to the medium (1 μM PI; Molecular Probes, Eugene, Oreg., USA) to detect cells with damaged cell membranes. […] Pictures were taken with a 3-CCD color video camera (MC3254P, Sony, Japan) and the Axiovision Software (Carl Zeiss, Jena, Germany). The intensity of cell fluorescence was recorded at the exposure time necessary for the production of the fluorescence images.
After imaging, Accutase™ (PAA laboratories, Pasching, Austria) was added to the wells to achieve detachment of the cells for further FACS analysis. Fluorescence was measured in a Becton Dickinson FACSCalibur. A total of 20,000 events per sample were analyzed. The investigations were performed in triplicate.
A sample of cells from each Eppendorf tube was subjected to the MTT test (described under 1.4) to determine microscopically whether the cells were viable. In vitro CT of the cell pellets was performed with a Somatom Sensation 16 (Siemens) which is used for routine clinical investigations.
Cells were incubated for 20 minutes with each of the conjugates dissolved in 0.1% DMSO/PBS at 260 μm. The cells were also incubated with TIBA and both of the non-TIBA-containing conjugates (3 and 4) separately in 0.1% DMSO/OBS at 260 μm. Both TIBA and the conjugates were dissolved in 0.1% DMSO/PBS at 260 μm for incubation due to the insolubility of TIBA (but not the conjugates) in pure PBS. As controls, the cells were incubated with PBS alone, 0.1% DMSO/PBS alone, and TIBA alone (260 μm in 0.1% DMSO/PBS).
The detection of phosphatidyl serine in the outer membrane leaflet of apoptotic cells was performed with the Annexin-V-Alexa™-568-reagent according to manufacturer's protocol (Roche Molecular Biochemicals, Indianapolis, USA). The confocal laser-scanning microscopy was performed on an inverted LSM 510 laser-scanning microscope (Carl Zeiss, Jena, Germany) (objectives: LD Achroplan 40×0.6, Plan Neofluar 20×0.50, 40×0.75). For fluorescence excitation, the 488 nm line of an argon-ion laser and the […] line of a helium-neon laser with appropriate beam splitters and barrier filters were used for FITC and Alexa respectively. Superimposed images of FITC- and Alexa-stained samples were created by overlaying coincident views. All measurements were performed on living, non-fixed cells.
Human malignant LN18 and U373 glioma cells were cultivated in four-well plates (NUNC, Wiesbaden, Germany) (about 300,000 cells per well) as described under 1.5. […] The cells were also coincubated either with CIBA, FIBA or TBPI as well as the NLS-FITC conjugate 3 (each 260 μM). As a control cells were used which were only incubated either with CIBA, FIBA or TBPI (260 μM in PBS) alone. After the incubation the cells were washed three times with PBS and in the following again incubated in Ready Mix Medium. The FITC-labelled conjugates and the Alexa-Annexin for the detection of phosphatidylserine as a signal of the cell death were localized with the confocal laser microscopy (CLSM) as in 1.6.1. All measurements were performed on living cells.
Background: Tetrazolium dyes change colour on reduction, which living cells bring about.

The test system of data set [2] is human malignant LN18 glioma cells. Description: Uptake/staining of cells by FITC-labelled conjugates (CLSM, FACS, semi-thin sections). The conditions noted are these: 20 min; for stained cells: 260 μM in PBS; for nuclear staining of cells (CLSM), in words: 260 μM. Format: cell-based. The method, then:
The human malignant U373 and LN18 glioma cells were cultivated in 75 cm^2 culture flasks (Corning Costar) (70% confluency) under the conditions as described under 1.4, detached from the flask bottom with Accutase™ (PAA Laboratories) and in the following distributed on Eppendorf tubes (Eppendorf, Hamburg, Germany) (6×10^6 per tube). The cells in the first tube serve as a control (only PBS buffer only). The cells in the other ten tubes were each incubated with benzoic acid (BA), monoiodobenzoic acid (MIBA) or diiodobenzoic acid (DIBA) alone (260 μM), conjugate 3 alone (260 μM), conjugate 3 plus either BA, MIBA or DIBA (260 μM), respectively, and the conjugates 9, 10, and 11 alone. (260 μM).
After an incubation of 20 minutes at 37° C./5% CO2 the cells were washed three times with PBS buffer and centrifuged at 800 rpm (rounds per minute) for 5 minutes. The fluorescence was measured in Becton Dickinson FACSCalibur as described under 1.4. The computer tomography was performed as described under 1.5.1. The examinations were repeated two times. […]
The FACS analysis was performed as described under 1.4. The assay was repeated two times.
For the CT and FACS examinations human LN18 and U373 glioma cells were cultivated in 75 cm^2 culture flasks (70% confluency) (conditions as described under section 1). Accutase™ (PAA Laboratories) was added to detach the cell from the culture bottom. The cells were collected and then distributed on Eppendorf-tubes (6×10^6 cells per tube). […] The next three tubes were used for the coincubation of the cells either with trichlorobenzoic acid (TCBA), trifluorobenzoic acid (TFBA) or tribromophenyl Isocyanat (TBPI) and the NLS-FITC-conjugate 3 (260 μM). As control cells were used which were only either incubated with CIBA, FIBA, TBPI (in each case 260 μM in PBS) or with PBS-buffer (native control) alone. […] The computer tomography and FACS analysis of the cell centrifuges were performed as described in 1.5.1 or 1.4, respectively for three times.
All measurements were performed on living cells.
All measurements were performed on living cells in triplicates.
A part of the cells which were stained for the FACS analysis, was fixed by paraformaldehyl with 2% Agar, dehydrogenized in ethanol, embedded in Lowicryl K4M (Polysciences, Eppelheim, Germany) and according to the information of the manufacturer UV-polymerised at room temperature. Semi-thin sections (about 0.4 μm) were cut and evaluated by means of fluorescence microscopy.

For data set [3] the test system is unchanged. Put plainly: Cell viability / cell death (annexin-V-Alexa 568 binding, propidium iodide, FACS scatter morphology). The conditions noted are these: 260 μM, 20 min, substance alone. Format: cell-based. The method, then: All measurements were performed on living, non-fixed cells. […] All measurements were performed on living cells. […] All measurements were performed on living cells in triplicates. […] All measurements were performed on living cells.

“Also recorded” adds a separate entry of the source.

Take “PKKKRKVK(FITC)GGK(TIBA) (FITC, GGK linker, TIBA) [conjugate 1]”: in data set [1] (26 μM, 20 min), the “cell viability (MTT formazan, propidium iodide uptake)” value is given as “living cells; also recorded: no signs of cell death”. The “cellular morphology, side scatter versus forward scatter FACS” value in data set [1] (26 μM, compared to PBS controls) is “no changes in the cellular morphology”. Further, the “binding of annexin-V-Alexa 568 reagent (phosphatidyl serine) / cytotoxic effects” value in data set [1] (20 min) is listed as “binding of annexin-V-Alexa™ 568 reagent was found; also recorded: Most of these cells show the expression of phosphatidyl serine in the outer membrane leaflet”.

With “PKKKRKVK(FITC)GGK (FITC, GGK linker) [conjugate 3, FITC-labelled correct NLS of the SV 40 T antigen without TIBA]”, in data set [2], the stained cells came out at 9% and the “nuclear staining of cells (CLSM), in words” value is recorded as “nuclear staining of few cells; also recorded: does only stain the nucleus of few cells”. Further, in data set [1] (20 min), the “binding of annexin-V-Alexa 568 reagent (phosphatidyl serine) / cytotoxic effects” value is listed as “did not result in binding” and the “cytotoxic effects / signs of cell death” value is reported as “did not show any signs of cell death; also recorded: without a sign of cell dead”. Besides, in data set [1] (conjugate co-incubated with free TIBA (260 μM)), the “binding of annexin-V-Alexa 568 reagent / cell viability” value was “fails to result in binding; also recorded: did not result in any changes”. Moreover, the “cell viability / cell death” value in data set [1] (non-TIBA conjugates, 26 μM, 260 μM and 2.6 mM) is reported as “No cell death”. For the same substance, in data set [3], the “cell death / vitality (annexin-V-Alexa 568, propidium iodide)” value is listed as “remain vital; also recorded: did not show any signs of cell death; also recorded: without a sign of cell dead”.

With “PKKKRKVK(FITC)GGK(BA) (FITC, GGK linker, benzoic acid) [conjugate 9, FITC-labelled NLS of the SV 40 T antigen with non-iodized benzoic acid]”, in data set [2], the stained cells is 9% and the “nuclear staining of cells (CLSM), in words” value is listed as “nuclear staining of few cells; also recorded: the staining rate did not increase”. For the same substance, in data set [1] (20 min), the “cytotoxic effects / signs of cell death” value is “no signs of cell death”. For the same substance, in data set [3], the “cell death / vitality (annexin-V-Alexa 568, propidium iodide)” value was “remain vital; also recorded: no signs of cell death; also recorded: remain viable”.

These data come from patent US20090203877A1, “X-RAY-DENSE CONJUGATE” (Eberhard-Karls-Universitaet Tuebingen Universitaetsklinkum, priority 2006, published 2009).
